From US9850133B2, “Green synthesis of reduced graphene oxide using Nigella sativa seed extract” (KING SAUD UNIVERSITY, priority 2016, dated 2017)

Experiments:
Assay in all cases: Agar well diffusion assay, zone of inhibition
Type in all cases: cell-based
Settings in all cases: samples at 100 μl, beyond the well diameter of 6 mm, mean±S.D.
[1] = system: Candida albicans (RCMB 05038)
[2] = system: Aspergillus fumigatus (RCMB 02567)
Method: (§1) Antimicrobial activity of the reduced graphene oxide (rGO) nanoparticles was determined using the agar well diffusion assay method as described by Holder and Boyce, 1994. Three bacterial strains (two gram positive and one gram negative) and one yeast strain, namely, Bacillis subtilis (RCMB 010067), Staphylococcus pneumoniae (RCMB 010011), Escherichia coli (RCMB 010052), and Aspergillus fumigatus (RCMB 02568) were used for the antimicrobial assay.
(§2) The tested organisms were sub-cultured on nutrient agar medium (Oxoid laboratories, UK) for bacteria and Sabouraud dextrose agar (Oxoid laboratories, UK) for fungi. Ampicillin and Gentamicin were used as positive control for gram positive and gram negative bacteria, respectively, while Amphotericin B was used for fungi. The plates were done in triplicates. Bacterial cultures were incubated at 37° C. for 24 h, while the fungal cultures were incubated at 25-30° C. for 3-7 days. Antimicrobial activity was determined by measuring the zone of inhibition [A. Agwa, (2000)]. Samples were tested at a concentration of 100 μl; Data are expressed in the form of (M±S.D.): mean±standard deviation; Diameter of the inhibition zone (mm) beyond the well diameter of 6 mm; NT: not tested; NA: no activity.

[3] = system: Escherichia coli (RCMB 010054)
Method: as §1, §2

[4] = system: Pseudomonas aeruginosa (RCMB 010045)
[5] = system: Bacillis subtilis (RCMB 010068)
Method: as §1, §2

[6] = system: Streptococcus pneumoniae (RCMB 010011)
Method: as §1, §2

Compound: C[C@@H]1[C@H](O)[C@@H](C)/C=C/C=C/C=C/C=C/C=C/C=C/C=C/[C@H](O[C@@H]2O[C@H](C)[C@@H](O)[C@H](N)[C@@H]2O)C[C@@H]2O[C@](O)(C[C@@H](O)C[C@@H](O)[C@H](O)CC[C@@H](O)C[C@@H](O)CC(=O)O[C@H]1C)C[C@H](O)[C@H]2C(=O)O [Amphotericin B]
- Diameter of the inhibition zone [1]: 22.7 ± 1.5 mm
- Diameter of the inhibition zone [2]: 21.7 ± 1.5 mm

Compound: Gentamicin
- Diameter of the inhibition zone [3]: 20.3 ± 0.58 mm
- Diameter of the inhibition zone [4]: 16.0 ± 1.0 mm

Compound: CC1(C)S[C@@H]2[C@H](NC(=O)[C@H](N)c3ccccc3)C(=O)N2[C@H]1C(=O)O [Ampicillin]
- Diameter of the inhibition zone [5]: 31.3 ± 1.5 mm
- Diameter of the inhibition zone [6]: 21.0 ± 1.0 mm
